“Also recorded” adds a separate entry of the source.

This is an account of results in patent US20220214354A1, “MEANS AND METHODS FOR SINGLE MOLECULE PEPTIDE SEQUENCING” (VIB VZW, priority 2019, published 2022).

In assay [1] the test system is peptide array [AA1][AA2]GGNNGG. Nature of the assay: Crown ether binding on PEPperPRINT peptide array (fluorescence intensity). The settings on record: crown ether 0.1 μg/μl in 0.1% triethanolamine in 50% ACN. The method, then: To study the binding of crown ethers to different peptides, a peptide array is used (PEPperPRINT array), containing an array of 400 peptides comprising peptides with all amino acid combinations at the first and second N-terminal position ([AA1][AA2]GGNNGG; four replicates of each peptide). After applying a fluorescently labeled crown ether (Cy5.5-dibenzo-18-crown-6), the relative affinity for all peptide substrates is determined by the fluorescence intensity on each peptide spot. The crown ether was applied on the peptide array at a concentration of 0.1 μg/μl in 0.1% triethanolamine in 50% ACN. After binding the array was washed two times for 10 sec using the same buffer. Finally, the fluorescence intensity was measured using a LI-COR Odyssey Imaging system. […] The large hydrophobic side chains of the second amino acid likely interact with the hydrophobic regions of the crown ether (crown ether benzene rings and/or cy5.5 fluorophore).

Assay [2] in a line: NMR titration repeated with acetylated peptide. The settings on record: same conditions as for NH2-Ala-Ala-Phe-amide; N-terminus acetylated. The class given is binding. The method, then:
The concept is based on the observation that 18-crown-6 ether derivatives can associate with protonated amines such as amino groups present at the N-termini of peptides or proteins (Yeh et al 2009 J Am Soc Mass Spectrom 20:385-393). To determine the exchange rate of the interaction between N-termini of polypeptides and 18-crown-6 ethers, an NMR study was performed. A model peptide (NH2-Ala-Ala-Phe-amide) was used in combination with the 18-crown-6 analogue triaza-trioxo-crown ether (TTC-ether; FIG. 3). The model peptide was designed with an N-terminal Ala to easily determine the shift of the N-terminal Ala methyl group upon binding to the TTC-ether. Solutions of the peptide were prepared in D2O/D-acetonitrile (3 ml/1 ml) with 10 mM D-acetic acid. A concentration of 100 μM peptide was maintained and mixed with varying concentrations of the TTC-ether. […]
A 2D-TOCSY (Total Correlation Spectroscopy) spectrum allows the identification of the position of the two methyl groups of both Ala residues around 1.25 ppm and 1.43 ppm. […] In order to retrieve information about the binding of the crown ether with the peptide, a titration was performed with different concentrations of the TTC-ether after which the shifts for the Ala methyl groups was measured at high resolution. Indeed, Ala-methyl shifts were observed when different TTC-ether/peptide ratios are measured (FIG. 4A). […]

As to Cy5.5-dibenzo-18-crown-6, the “relative binding (fluorescence intensity), variable second amino acid” value in assay [1] (peptides with N-terminal glycine) is “strongest on the peptides GFGGNNGG, GLGGNNGG, GYGGNNGG, GIGGNNGG, GKGGNNGG and GWGGNNGG”. For the same substance, the “relative binding (fluorescence intensity), variable N-terminal amino acid” value in assay [1] (peptides with leucine at the second position) is listed as “strongest on N-terminal glycine; also recorded: weakest on N-terminal proline”.
Consider Acetyl-Ala-Ala-Phe-amide, for which, in assay [2], the “interaction with TTC-ether (NMR shifts)” value is “did not measure any noticeable interaction”.
